According to ChEMBL document CHEMBL5649166, “RIP3 induces apoptosis independent of pronecrotic kinase activity” (Mol Cell, 2014):

What was measured:
[1] = molecular target: Mitogen-activated protein kinase kinase kinase 14 (Homo sapiens) (UniProt Q99558); assay: Inhibition of human NIK/MAP3K14 using at 1 uM in presence of 32P-ATP by Hotspot assay relative to control; values are per cent of control
[2] = molecular target: Serine/threonine-protein kinase PAK 4 (Homo sapiens) (UniProt O96013); assay: Inhibition of human PAK4 using RRRLSFAEPG as substrate at 1 uM in presence of 32P-ATP by Hotspot assay relative to control; values are per cent of control
[3] = molecular target: Tyrosine-protein kinase HCK (Homo sapiens) (UniProt P08631); assay: Inhibition of human HCK using KVEKIGEGTYGVVYK as substrate at 1 uM in presence of 32P-ATP by Hotspot assay relative to control; values are per cent of control
[4] = molecular target: T1, Tyrosine-protein kinase JAK3 (Homo sapiens) (UniProt P52333); assay: Inhibition of human JAK3 using GGEEEEYFELVKKKK as substrate at 1 uM in presence of 32P-ATP by Hotspot assay relative to control; values are per cent of control
T1 sequence (whole entry): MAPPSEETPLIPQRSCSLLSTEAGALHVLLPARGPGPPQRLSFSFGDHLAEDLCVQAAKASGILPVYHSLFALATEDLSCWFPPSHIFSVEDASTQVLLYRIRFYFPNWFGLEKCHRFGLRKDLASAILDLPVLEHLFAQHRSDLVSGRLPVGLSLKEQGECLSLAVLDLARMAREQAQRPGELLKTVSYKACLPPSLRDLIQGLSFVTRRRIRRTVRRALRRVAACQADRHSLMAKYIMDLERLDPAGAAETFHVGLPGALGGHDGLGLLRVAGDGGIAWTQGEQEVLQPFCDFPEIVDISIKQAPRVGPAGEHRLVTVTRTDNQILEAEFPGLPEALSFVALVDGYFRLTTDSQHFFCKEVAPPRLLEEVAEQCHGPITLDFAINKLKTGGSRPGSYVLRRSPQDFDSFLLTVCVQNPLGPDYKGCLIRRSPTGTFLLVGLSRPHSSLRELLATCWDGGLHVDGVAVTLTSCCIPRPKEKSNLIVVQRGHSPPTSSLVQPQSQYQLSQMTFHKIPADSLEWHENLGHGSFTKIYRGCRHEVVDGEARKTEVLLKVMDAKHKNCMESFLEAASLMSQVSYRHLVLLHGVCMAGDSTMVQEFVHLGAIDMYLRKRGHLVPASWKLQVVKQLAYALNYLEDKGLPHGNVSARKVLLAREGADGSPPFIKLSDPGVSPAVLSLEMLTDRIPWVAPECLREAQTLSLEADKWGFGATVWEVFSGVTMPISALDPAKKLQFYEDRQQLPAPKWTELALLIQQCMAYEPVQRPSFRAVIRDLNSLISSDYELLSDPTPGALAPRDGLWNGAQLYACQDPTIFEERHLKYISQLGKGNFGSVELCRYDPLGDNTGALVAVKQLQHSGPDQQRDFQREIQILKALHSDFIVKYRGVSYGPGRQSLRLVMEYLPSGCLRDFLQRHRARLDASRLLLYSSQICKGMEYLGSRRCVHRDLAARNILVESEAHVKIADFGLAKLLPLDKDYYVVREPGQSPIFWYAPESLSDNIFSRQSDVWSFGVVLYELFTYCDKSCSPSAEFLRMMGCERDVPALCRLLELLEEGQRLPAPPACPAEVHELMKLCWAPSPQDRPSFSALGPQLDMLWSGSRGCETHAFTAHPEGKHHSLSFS

[5] = molecular target: Protein kinase C gamma type (Homo sapiens) (UniProt P05129); assay: Inhibition of human PKCg using ERMRPRKRQGSVRRRV as substrate at 1 uM in presence of 32P-ATP by Hotspot assay relative to control; values are per cent of control
[6] = molecular target: T2, Serine/threonine-protein kinase TBK1 (Homo sapiens) (UniProt Q9UHD2); assay: Inhibition of human TBK1 using myelin basic protein as substrate at 1 uM in presence of 32P-ATP by Hotspot assay relative to control; values are per cent of control
T2 sequence (whole entry): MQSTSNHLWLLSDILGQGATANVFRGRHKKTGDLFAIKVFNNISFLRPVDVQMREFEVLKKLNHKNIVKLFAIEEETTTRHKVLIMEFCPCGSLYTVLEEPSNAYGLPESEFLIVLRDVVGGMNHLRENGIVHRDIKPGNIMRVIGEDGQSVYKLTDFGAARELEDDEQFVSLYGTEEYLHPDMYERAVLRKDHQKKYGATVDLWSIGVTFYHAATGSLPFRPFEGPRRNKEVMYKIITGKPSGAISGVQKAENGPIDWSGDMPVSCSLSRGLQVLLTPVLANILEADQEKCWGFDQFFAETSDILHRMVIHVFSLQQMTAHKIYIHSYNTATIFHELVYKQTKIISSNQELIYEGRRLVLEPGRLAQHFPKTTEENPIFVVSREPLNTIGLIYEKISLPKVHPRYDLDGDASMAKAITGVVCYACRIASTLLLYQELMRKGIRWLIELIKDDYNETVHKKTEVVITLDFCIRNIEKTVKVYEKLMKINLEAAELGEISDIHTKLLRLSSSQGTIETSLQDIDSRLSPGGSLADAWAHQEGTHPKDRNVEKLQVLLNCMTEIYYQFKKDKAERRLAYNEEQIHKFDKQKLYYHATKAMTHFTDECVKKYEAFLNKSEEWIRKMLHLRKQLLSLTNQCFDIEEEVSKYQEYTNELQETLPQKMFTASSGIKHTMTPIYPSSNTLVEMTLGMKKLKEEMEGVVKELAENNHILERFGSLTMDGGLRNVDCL

[7] = molecular target: Calcium/calmodulin-dependent protein kinase kinase 1 (Homo sapiens) (UniProt Q8N5S9); assay: Inhibition of human CAMKK1 using myelin basic protein as substrate at 1 uM in presence of 32P-ATP by Hotspot assay relative to control; values are per cent of control
[8] = molecular target: T3, Lymphokine-activated killer T-cell-originated protein kinase (Homo sapiens) (UniProt Q96KB5); assay: Inhibition of human PBK/TOPK using myelin basic protein as substrate at 1 uM in presence of 32P-ATP by Hotspot assay relative to control; values are per cent of control
T3 sequence (whole entry): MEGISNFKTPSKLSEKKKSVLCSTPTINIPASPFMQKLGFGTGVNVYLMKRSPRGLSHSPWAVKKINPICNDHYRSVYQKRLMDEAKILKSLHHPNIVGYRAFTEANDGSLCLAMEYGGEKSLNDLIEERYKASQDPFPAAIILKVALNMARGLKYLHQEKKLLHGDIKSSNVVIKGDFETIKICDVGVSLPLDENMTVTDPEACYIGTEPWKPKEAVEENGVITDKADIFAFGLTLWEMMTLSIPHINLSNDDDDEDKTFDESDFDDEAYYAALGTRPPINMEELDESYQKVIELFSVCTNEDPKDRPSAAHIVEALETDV

Tyrosine-protein kinase HCK (Homo sapiens), sequence (P08631 2-526 limits assumed): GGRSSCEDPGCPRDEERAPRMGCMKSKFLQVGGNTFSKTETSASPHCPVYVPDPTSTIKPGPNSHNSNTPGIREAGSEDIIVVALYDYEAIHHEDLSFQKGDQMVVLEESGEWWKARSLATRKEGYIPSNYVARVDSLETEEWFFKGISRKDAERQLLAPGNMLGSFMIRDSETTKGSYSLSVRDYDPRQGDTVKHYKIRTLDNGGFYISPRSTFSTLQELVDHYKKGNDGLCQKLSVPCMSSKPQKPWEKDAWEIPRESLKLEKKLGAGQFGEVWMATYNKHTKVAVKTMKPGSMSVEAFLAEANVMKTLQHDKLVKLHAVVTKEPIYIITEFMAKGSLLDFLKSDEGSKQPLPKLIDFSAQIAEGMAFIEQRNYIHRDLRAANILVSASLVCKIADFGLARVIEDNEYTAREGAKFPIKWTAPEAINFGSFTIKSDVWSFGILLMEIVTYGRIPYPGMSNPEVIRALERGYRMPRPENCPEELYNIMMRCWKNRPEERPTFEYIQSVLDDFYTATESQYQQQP
Calcium/calmodulin-dependent protein kinase kinase 1 (Homo sapiens), sequence (Q8N5S9 whole entry, looked up): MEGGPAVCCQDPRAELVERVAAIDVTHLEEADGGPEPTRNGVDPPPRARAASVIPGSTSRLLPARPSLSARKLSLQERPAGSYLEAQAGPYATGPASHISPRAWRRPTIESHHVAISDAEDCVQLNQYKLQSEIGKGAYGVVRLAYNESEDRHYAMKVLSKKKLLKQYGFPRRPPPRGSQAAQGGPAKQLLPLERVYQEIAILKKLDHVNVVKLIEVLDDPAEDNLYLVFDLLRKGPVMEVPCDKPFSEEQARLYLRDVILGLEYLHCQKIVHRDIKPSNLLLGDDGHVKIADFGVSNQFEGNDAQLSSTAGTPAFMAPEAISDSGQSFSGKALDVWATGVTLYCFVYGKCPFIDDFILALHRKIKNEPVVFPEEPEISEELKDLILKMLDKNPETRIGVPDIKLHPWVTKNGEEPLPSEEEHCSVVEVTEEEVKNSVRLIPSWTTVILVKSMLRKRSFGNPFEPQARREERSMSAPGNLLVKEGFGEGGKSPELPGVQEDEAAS
Serine/threonine-protein kinase PAK 4 (Homo sapiens), sequence (O96013 whole entry, looked up): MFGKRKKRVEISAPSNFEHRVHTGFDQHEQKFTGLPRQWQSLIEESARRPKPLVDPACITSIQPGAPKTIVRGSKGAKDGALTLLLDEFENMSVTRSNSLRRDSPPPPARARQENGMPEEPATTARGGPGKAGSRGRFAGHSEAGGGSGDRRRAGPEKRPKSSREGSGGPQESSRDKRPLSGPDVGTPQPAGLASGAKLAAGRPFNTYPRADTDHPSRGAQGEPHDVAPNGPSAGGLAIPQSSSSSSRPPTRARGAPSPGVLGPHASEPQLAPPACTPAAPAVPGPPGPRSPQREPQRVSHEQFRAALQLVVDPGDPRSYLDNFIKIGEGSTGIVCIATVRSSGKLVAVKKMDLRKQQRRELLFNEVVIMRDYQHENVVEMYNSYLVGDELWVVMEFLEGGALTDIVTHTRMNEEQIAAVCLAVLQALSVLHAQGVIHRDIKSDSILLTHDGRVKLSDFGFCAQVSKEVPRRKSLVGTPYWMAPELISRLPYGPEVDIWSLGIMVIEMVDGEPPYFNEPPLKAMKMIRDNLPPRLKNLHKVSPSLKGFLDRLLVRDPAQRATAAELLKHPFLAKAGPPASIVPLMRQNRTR
Mitogen-activated protein kinase kinase kinase 14 (Homo sapiens), sequence (Q99558 whole entry, looked up): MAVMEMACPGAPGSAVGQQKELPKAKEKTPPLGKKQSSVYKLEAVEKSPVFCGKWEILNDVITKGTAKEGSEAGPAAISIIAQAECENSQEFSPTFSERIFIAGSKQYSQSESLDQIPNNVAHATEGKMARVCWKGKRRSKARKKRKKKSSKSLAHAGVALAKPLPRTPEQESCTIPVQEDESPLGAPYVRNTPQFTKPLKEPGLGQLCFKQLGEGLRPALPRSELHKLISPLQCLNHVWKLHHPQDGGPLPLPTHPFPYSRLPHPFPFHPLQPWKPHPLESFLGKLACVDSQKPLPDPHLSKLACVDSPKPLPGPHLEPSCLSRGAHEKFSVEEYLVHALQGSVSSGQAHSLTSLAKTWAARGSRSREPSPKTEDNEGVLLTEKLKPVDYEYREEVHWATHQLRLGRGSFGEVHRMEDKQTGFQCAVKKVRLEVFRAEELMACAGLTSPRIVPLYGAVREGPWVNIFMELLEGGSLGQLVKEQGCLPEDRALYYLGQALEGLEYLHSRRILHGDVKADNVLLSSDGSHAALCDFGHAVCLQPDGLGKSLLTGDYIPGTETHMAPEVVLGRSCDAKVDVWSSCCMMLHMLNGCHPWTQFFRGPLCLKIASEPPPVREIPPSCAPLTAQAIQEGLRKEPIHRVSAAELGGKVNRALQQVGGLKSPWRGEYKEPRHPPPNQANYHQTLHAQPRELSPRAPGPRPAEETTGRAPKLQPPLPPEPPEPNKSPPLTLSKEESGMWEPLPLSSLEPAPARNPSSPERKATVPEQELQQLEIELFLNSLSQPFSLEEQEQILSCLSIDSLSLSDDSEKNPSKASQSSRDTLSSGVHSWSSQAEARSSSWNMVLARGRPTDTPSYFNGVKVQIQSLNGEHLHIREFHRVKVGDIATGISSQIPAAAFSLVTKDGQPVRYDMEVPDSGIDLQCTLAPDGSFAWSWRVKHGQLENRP

Compound: CC(C)S(=O)(=O)c1ccc2nccc(Nc3ccc4scnc4c3)c2c1
- residual activity [1]: 89.5%
- residual activity [2]: 99%
- residual activity [3]: 23.1%
- residual activity [4]: 102%
- residual activity [5]: 99.4%
- residual activity [6]: 96.1%
- residual activity [7]: 99.3%
- residual activity [8]: 105%

Compound: Cc1cc(-c2cnc(N)c3c(-c4ccc5scnc5c4)csc23)n(C)n1
- residual activity [1]: 92.9%
- residual activity [2]: 100%
- residual activity [3]: 41%
- residual activity [4]: 96.6%
- residual activity [5]: 86.6%
- residual activity [6]: 105%
- residual activity [7]: 98.6%
- residual activity [8]: 100%

Compound: CNC(=O)c1ccc2c(c1)ncn2-c1ccc(CC(=O)OC(C)(C)C)cc1
- residual activity [1]: 95.3%
- residual activity [2]: 99.6%
- residual activity [3]: 76.1%
- residual activity [4]: 94.3%
- residual activity [5]: 85.7%
- residual activity [6]: 84.2%
- residual activity [7]: 77.3%
- residual activity [8]: 102%
